# Experiments:
# Type in all cases: functional
# Mus musculus [1] = assay: Immunosuppressive activity in BALB/c mouse allografted with C57 mouse cardiac tissue assessed as suppression of graft rejection by measuring graft median survival time at 83 mg/kg, po
# Mus musculus [2] = assay: Immunosuppressive activity in BALB/c mouse allografted with C57 mouse cardiac tissue assessed as suppression of graft rejection by measuring graft median survival time at 83 mg/kg, po in presence of tacrolimus
# Mus musculus [3] = assay: Immunosuppressive activity in anti-CD3-stimulated mouse assessed as reduction in IL-2 level in whole blood at 40 mg/kg, po measured after 1 hr by flow cytometry analysis; set-up: scale not given: the % may be the effect or the level left
# Mus musculus [4] = assay: Immunosuppressive activity in anti-CD3-stimulated mouse assessed as reduction in IL-2 level in whole blood at 40 mg/kg, po measured after 4 hrs by flow cytometry analysis; set-up: scale not given: the % may be the effect or the level left
# Mus musculus [5] = assay: Immunosuppressive activity in anti-CD3-stimulated mouse assessed as reduction in IL-2 level in whole blood at 40 mg/kg, po measured after 8 hrs by flow cytometry analysis; set-up: scale not given: the % may be the effect or the level left
# Mus musculus [6] = assay: Immunosuppressive activity in anti-CD3-stimulated mouse assessed as reduction in IL-2 level in whole blood at 65 mg/kg, po measured after 1 hr by flow cytometry analysis; set-up: scale not given: the % may be the effect or the level left
# Mus musculus [7] = assay: Immunosuppressive activity in anti-CD3-stimulated mouse assessed as reduction in IL-2 level in whole blood at 65 mg/kg, po measured after 4 hrs by flow cytometry analysis; set-up: scale not given: the % may be the effect or the level left
# Mus musculus [8] = assay: Immunosuppressive activity in anti-CD3-stimulated mouse assessed as reduction in IL-2 level in whole blood at 65 mg/kg, po measured after 8 hrs by flow cytometry analysis; set-up: scale not given: the % may be the effect or the level left
# Mus musculus [9] = assay: Immunosuppressive activity in anti-CD3-stimulated mouse assessed as reduction in IL-2 level in whole blood at 50 mg/kg, po measured after 8 hr by flow cytometry analysis; set-up: scale not given: the % may be the effect or the level left
# Mus musculus [10] = assay: Immunosuppressive activity in anti-CD3-stimulated mouse assessed as reduction in IL-2 level in whole blood at 50 mg/kg, po measured after 4 hrs by flow cytometry analysis; set-up: scale not given: the % may be the effect or the level left
# Mus musculus [11] = assay: Immunosuppressive activity in anti-CD3-stimulated mouse assessed as reduction in IL-2 level in whole blood at 50 mg/kg, po measured after 1 hr by flow cytometry analysis; set-up: scale not given: the % may be the effect or the level left
# Mus musculus [12] = assay: Immunosuppressive activity in anti-CD3-stimulated mouse assessed as reduction in IL-2 level in whole blood at 25 mg/kg, po measured after 8 hr by flow cytometry analysis; set-up: scale not given: the % may be the effect or the level left
# Mus musculus [13] = assay: Immunosuppressive activity in anti-CD3-stimulated mouse assessed as reduction in IL-2 level in whole blood at 25 mg/kg, po measured after 4 hr by flow cytometry analysis; set-up: scale not given: the % may be the effect or the level left
# Mus musculus [14] = assay: Immunosuppressive activity in anti-CD3-stimulated mouse assessed as reduction in IL-2 level in whole blood at 25 mg/kg, po measured after 1 hr by flow cytometry analysis; set-up: scale not given: the % may be the effect or the level left
# Mus musculus [15] = assay: Immunosuppressive activity in BALB/c mouse allografted with C57 mouse cardiac tissue assessed as suppression of graft rejection by measuring graft median survival time at 4 mg/kg, IM
# Mus musculus [16] = assay: Immunosuppressive activity in BALB/c mouse allografted with C57 mouse cardiac tissue assessed as suppression of graft rejection by measuring graft median survival time at 112 mg/kg, po in presence of tacrolimus
# Mus musculus [17] = assay: Immunosuppressive activity in BALB/c mouse allografted with C57 mouse cardiac tissue assessed as suppression of graft rejection by measuring graft median survival time at 112 mg/kg, po
# Mus musculus [18] = assay: Immunosuppressive activity in anti-CD3-stimulated mouse assessed as reduction in IL-2 level in whole blood at 55 mg/kg, po measured after 1 hr by flow cytometry analysis; set-up: scale not given: the % may be the effect or the level left
# Mus musculus [19] = assay: Immunosuppressive activity in anti-CD3-stimulated mouse assessed as reduction in IL-2 level in whole blood at 55 mg/kg, po measured after 4 hrs by flow cytometry analysis; set-up: scale not given: the % may be the effect or the level left
# Mus musculus [20] = assay: Immunosuppressive activity in anti-CD3-stimulated mouse assessed as reduction in IL-2 level in whole blood at 55 mg/kg, po measured after 8 hrs by flow cytometry analysis; set-up: scale not given: the % may be the effect or the level left
compound,measurement,setting,value
CC(C)(C)C(=O)NC(=O)c1ncn([C@@H]2O[C@H](COC(=O)C(C)(C)C)[C@@H](O)[C@H]2O)c1O,MST,Mus musculus [1],11 days
same,MST,Mus musculus [2],55 days
same,Activity,Mus musculus [3],19.4%
same,Activity,Mus musculus [4],64.4%
same,Activity,Mus musculus [5],61.3%
CC(C)CCOC(=O)C[C@H](NP(=O)(OC[C@H]1O[C@@H](n2cnc(C(N)=O)c2O)[C@H](O)[C@@H]1O)Oc1ccccc1)C(=O)OCCC(C)C (stereo not given in full),Activity,Mus musculus [6],14.7%
same,Activity,Mus musculus [7],18.3%
same,Activity,Mus musculus [8],17.5%
COc1c(C)c2c(c(O)c1C/C=C(\C)CCC(=O)OCCN1CCOCC1)C(=O)OC2 [MYCOPHENOLATE MOFETIL],Activity,Mus musculus [9],81.7%
same,Activity,Mus musculus [10],52.3%
same,Activity,Mus musculus [11],3.4%
NC(=O)c1ncn([C@@H]2O[C@H](CO)[C@@H](O)[C@H]2O)c1O [MIZORIBINE],Activity,Mus musculus [12],7.3%
same,Activity,Mus musculus [13],8.6%
same,Activity,Mus musculus [14],55.6%
C=CC[C@@H]1/C=C(\C)C[C@H](C)C[C@H](OC)[C@H]2O[C@@](O)(C(=O)C(=O)N3CCCC[C@H]3C(=O)O[C@H](/C(C)=C/[C@@H]3CC[C@@H](O)[C@H](OC)C3)[C@H](C)[C@@H](O)CC1=O)[C@H](C)C[C@@H]2OC [TACROLIMUS ANHYDROUS],MST,Mus musculus [15],8 days
NC(=O)c1ncn([C@@H]2O[C@H](COC(=O)[C@@H](N)CC(=O)OCc3ccccc3)[C@@H](O)[C@H]2O)c1O.O=C(O)C(F)(F)F,MST,Mus musculus [16],15.5 days
same,MST,Mus musculus [17],11 days
same,Activity,Mus musculus [18],77%
same,Activity,Mus musculus [19],32.7%
same,Activity,Mus musculus [20],27.7%
